Data published in patent US12195482B1 (Arcus Biosciences, Inc., priority 2022, dated 2025).

Key:
p-AXL = biological target: T1, p-AXL (Homo sapiens, UniProt P30530); experiment: Axl phosphorylation inhibition ELISA in HEK293T cells transfected with NanoLuc-tagged AXL; type: cell-based; details: 1 h compound incubation, media (OptiMEM)
T1 construct: expressed in transfected cells; host or cells: HEK293T
T1 sequence (P30530 26-894): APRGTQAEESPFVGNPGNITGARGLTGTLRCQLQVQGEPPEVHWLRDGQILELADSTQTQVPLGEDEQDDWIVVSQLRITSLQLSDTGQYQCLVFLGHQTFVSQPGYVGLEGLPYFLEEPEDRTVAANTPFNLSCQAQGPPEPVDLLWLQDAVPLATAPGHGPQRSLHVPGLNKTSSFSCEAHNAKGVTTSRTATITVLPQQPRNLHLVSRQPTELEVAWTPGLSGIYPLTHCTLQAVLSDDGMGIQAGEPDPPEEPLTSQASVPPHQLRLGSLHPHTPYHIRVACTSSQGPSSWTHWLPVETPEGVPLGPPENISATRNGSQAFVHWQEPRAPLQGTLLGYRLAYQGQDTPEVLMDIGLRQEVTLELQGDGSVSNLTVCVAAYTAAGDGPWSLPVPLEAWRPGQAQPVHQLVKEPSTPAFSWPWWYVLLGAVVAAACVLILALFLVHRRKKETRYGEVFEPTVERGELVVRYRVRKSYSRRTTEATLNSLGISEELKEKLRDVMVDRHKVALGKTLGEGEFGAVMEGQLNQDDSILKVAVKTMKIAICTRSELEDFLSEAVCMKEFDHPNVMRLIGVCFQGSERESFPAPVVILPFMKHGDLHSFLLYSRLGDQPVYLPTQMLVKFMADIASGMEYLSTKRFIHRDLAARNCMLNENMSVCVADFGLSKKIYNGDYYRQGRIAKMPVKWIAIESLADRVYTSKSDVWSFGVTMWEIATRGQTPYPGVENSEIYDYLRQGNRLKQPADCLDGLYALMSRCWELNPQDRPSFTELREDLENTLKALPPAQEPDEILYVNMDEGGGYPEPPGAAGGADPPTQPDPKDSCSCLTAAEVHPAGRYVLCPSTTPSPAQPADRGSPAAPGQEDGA
In short: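 Phospho-AXL detected by luminescence of NanoLuc tag after capture of cell lysate on biotinylated anti-phospho-tyrosine mAb plates (2 h). Lysates came from transiently transfected HEK293T cells treated 1 h at 37° C with serial 2-fold dilutions (22 points). IC50 by standard 4-parameter logistic fitting.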

Axl = biological target: T2, Axl (Homo sapiens, UniProt P30530); experiment: Biochemical potency, HTRF KinEASE-TK kinase assay; design: purchased Invitrogen; details: 5 nM AXL, 700 μM ATP
T2 sequence (P30530 26-894): T1 sequence (P30530 26-894)
In short: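 Compounds preincubated 1 h at RT with enzyme in 50 mM HEPES pH 7.4, 10 mM MgCl2, 0.01% BSA, 1 mM DTT; reactions then ran 2 h at RT with 5 nM AXL or 1 nM TYRO3/MER, 800 nM TK substrate-biotin, 700 μM ATP, 1% DMSO. HTRF 665/620 ratio read; percent activity calculated.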

| Structure (SMILES) | IC50 (p-AXL) | IC50 (Axl) |
| --- | --- | --- |
| Cc1cc(F)cnc1-c1ccc(-c2n[nH]c3ncc(-c4ccc5c(c4)CC[C@@H](N4C6COCC4C6)CC5)cc23)cc1 [Example 28, 6-[(7S)-3-[3-[4-(5-Fluoro-3-methylpyridin-2-yl)phenyl]-1H-pyrazolo[3,4-b]pyridin-5-yl]-6,7,8,9-tetrahydro-5H-benzo[7]annulen-7-yl]-3-oxa-6-azabicyclo[3.1.1]heptane] | 0.1 to 1 µM | < 0.1 µM |
| Cn1nncc1-c1ccc(-c2n[nH]c3ncc(-c4ccc5c(c4)CC[C@@H](N4C6COCC4C6)CC5)cc23)cc1 [Example 13, 6-[(7S)-2-{3-[4-(1-Methyl-1H-1,2,3-triazol-5-yl)phenyl]-1H-pyrazolo[3,4-b]pyridin-5-yl}-6,7,8,9-tetrahydro-5H-benzo[7]annulen-7-yl]-3-oxa-6-azabicyclo[3.1.1]heptane] | 0.1 to 1 µM | < 0.1 µM |
| CN(C)C(=O)c1cccc(-c2ccc(-c3n[nH]c4ncc(-c5ccc6c(c5)CC[C@@H](N5C7COCC5C7)CC6)cc34)cc2)n1 [Example 94, N,N-Dimethyl-6-(4-{5-[(7S)-7-{3-oxa-6-azabicyclo[3.1.1]heptan-6-yl}-6,7,8,9-tetrahydro-5H-benzo[7]annulen-2-yl]-2H-pyrazolo[3,4-b]pyridin-3-yl}phenyl)pyridine-2-carboxamide] | 0.1 to 1 µM | < 0.1 µM |
| c1cnc(-c2ccc(-c3c[nH]c4ncc(-c5ccc6c(c5)CC[C@@H](N5C7COCC5C7)CC6)cc34)cc2)c(C2CC2)c1 [Example 178, 6-[(7S)-2-{3-[4-(3-Cyclopropylpyridin-2-yl)phenyl]-1H-pyrrolo[2,3-b]pyridin-5-yl}-6,7,8,9-tetrahydro-5H-benzo[7]annulen-7-yl]-3-oxa-6-azabicyclo[3.1.1]heptane] | < 0.1 µM | < 0.1 µM |
| Cc1ccccc1-c1ccc(-c2n[nH]c3ncc(-c4ccc5c(c4)CC[C@@H](N4C6COCC4C6)CC5)cc23)nc1 [Example 98, 6-[(7S)-2-{3-[5-(2-Methylphenyl)pyridin-2-yl]-1H-pyrazolo[3,4-b]pyridin-5-yl}-6,7,8,9-tetrahydro-5H-benzo[7]annulen-7-yl]-3-oxa-6-azabicyclo[3.1.1]heptane] | 0.1 to 1 µM | < 0.1 µM |
| Cc1ccnc(-c2ccc(-c3n[nH]c4ncc(-c5ccc6c(c5)CC[C@@H](N5C7COCC5C7)CC6)cc34)cc2)c1C [Example 118, 6-[(7S)-2-{3-[4-(3,4-Dimethylpyridin-2-yl)phenyl]-1H-pyrazolo[3,4-b]pyridin-5-yl}-6,7,8,9-tetrahydro-5H-benzo[7]annulen-7-yl]-3-oxa-6-azabicyclo[3.1.1]heptane] | < 0.1 µM | < 0.1 µM |
| CN(C)C(=O)c1cccnc1-c1ccc(-c2c[nH]c3ncc(-c4ccc5c(c4)CC[C@@H](N4C6COCC4C6)CC5)cc23)cc1 [Example 165, N,N-Dimethyl-2-(4-{5-[(7S)-7-{3-oxa-6-azabicyclo[3.1.1]heptan-6-yl}-6,7,8,9-tetrahydro-5H-benzo[7]annulen-2-yl]-1H-pyrrolo[2,3-b]pyridin-3-yl}phenyl)pyridine-3-carboxamide] | < 0.1 µM | < 0.1 µM |
| CC(C)(O)c1ccccc1-c1ccc(-c2c[nH]c3ncc(-c4ccc5c(c4)CC[C@@H](N4C6COCC4C6)CC5)cc23)cn1 [Example 114, 2-[2-(5-{5-[(7S)-7-{3-Oxa-6-azabicyclo[3.1.1]heptan-6-yl}-6,7,8,9-tetrahydro-5H-benzo[7]annulen-2-yl]-1H-pyrrolo[2,3-b]pyridin-3-yl}pyridin-2-yl)phenyl]propan-2-ol] | < 0.1 µM | < 0.1 µM |
| O=C1CCCN1c1cccnc1-c1ccc(-c2n[nH]c3ncc(-c4ccc5c(c4)CC[C@@H](N4C6COCC4C6)CC5)cc23)cc1 [Example 177, 1-[2-(4-{5-[(7S)-7-{3-Oxa-6-azabicyclo[3.1.1]heptan-6-yl}-6,7,8,9-tetrahydro-5H-benzo[7]annulen-2-yl]-1H-pyrazolo[3,4-b]pyridin-3-yl}phenyl)pyridin-3-yl]pyrrolidin-2-one] | < 0.1 µM | < 0.1 µM |
| Cc1cncnc1-c1ccc(-c2n[nH]c3ncc(-c4ccc5c(c4)CC[C@@H](N4C6COCC4C6)CC5)cc23)cc1 [Example 174, 6-[(7S)-2-{3-[4-(5-Methylpyrimidin-4-yl)phenyl]-1H-pyrazolo[3,4-b]pyridin-5-yl}-6,7,8,9-tetrahydro-5H-benzo[7]annulen-7-yl]-3-oxa-6-azabicyclo[3.1.1]heptane] | < 0.1 µM | < 0.1 µM |
| Cc1nn(C)nc1-c1ccc(-c2n[nH]c3ncc(-c4ccc5c(c4)CC[C@@H](N4C6COCC4C6)CC5)cc23)cc1 [Example 14, 6-[(7S)-2-{3-[4-(2,5-Dimethyl-2H-1,2,3-triazol-4-yl)phenyl]-1H-pyrazolo[3,4-b]pyridin-5-yl}-6,7,8,9-tetrahydro-5H-benzo[7]annulen-7-yl]-3-oxa-6-azabicyclo[3.1.1]heptane] | < 0.1 µM | < 0.1 µM |
| Cc1cccc(-c2ccc(-c3n[nH]c4ncc(-c5ccc6c(c5)CC[C@@H](N5C7COCC5C7)CC6)cc34)cc2)n1 [Example 116, 6-[(7S)-2-{3-[4-(6-Methylpyridin-2-yl)phenyl]-1H-pyrazolo[3,4-b]pyridin-5-yl}-6,7,8,9-tetrahydro-5H-benzo[7]annulen-7-yl]-3-oxa-6-azabicyclo[3.1.1]heptane] | 0.1 to 1 µM | < 0.1 µM |
| Cc1cccnc1-c1ccc(-c2c[nH]c3ncc(-c4ccc5c(c4)CC[C@@H](N4CCCC4)CC5)cc23)cc1 [Example 173, 3-Methyl-2-(4-{5-[(7S)-7-(pyrrolidin-1-yl)-6,7,8,9-tetrahydro-5H-benzo[7]annulen-2-yl]-1H-pyrrolo[2,3-b]pyridin-3-yl}phenyl)pyridine] | < 0.1 µM | < 0.1 µM |
| Cc1ccc(C)c(-c2ccc(-c3n[nH]c4ncc(-c5ccc6c(c5)CC[C@@H](N5C7COCC5C7)CC6)cc34)cc2)n1 [Example 120, 6-[(7S)-2-{3-[4-(3,6-Dimethylpyridin-2-yl)phenyl]-1H-pyrazolo[3,4-b]pyridin-5-yl}-6,7,8,9-tetrahydro-5H-benzo[7]annulen-7-yl]-3-oxa-6-azabicyclo[3.1.1]heptane] | < 0.1 µM | < 0.1 µM |
| Cc1nc(-c2ccc(-c3n[nH]c4ncc(-c5ccc6c(c5)CC[C@@H](N5C7COCC5C7)CC6)cc34)cc2)n(C)n1 [Example 23, 6-[(7S)-2-{3-[4-(1,3-Dimethyl-1H-1,2,4-triazol-5-yl)phenyl]-1H-pyrazolo[3,4-b]pyridin-5-yl}-6,7,8,9-tetrahydro-5H-benzo[7]annulen-7-yl]-3-oxa-6-azabicyclo[3.1.1]heptane] | < 0.1 µM | < 0.1 µM |
| CS(=O)(=O)c1cccnc1-c1ccc(-c2n[nH]c3ncc(-c4ccc5c(c4)CC[C@@H](N4C6COCC4C6)CC5)cc23)cc1 [Example 101, 6-[(7S)-2-{3-[4-(3-Methanesulfonylpyridin-2-yl)phenyl]-1H-pyrazolo[3,4-b]pyridin-5-yl}-6,7,8,9-tetrahydro-5H-benzo[7]annulen-7-yl]-3-oxa-6-azabicyclo[3.1.1]heptane] | < 0.1 µM | < 0.1 µM |
| OC1(c2cccnc2-c2ccc(-c3c[nH]c4ncc(-c5ccc6c(c5)CC[C@@H](N5C7COCC5C7)CC6)cc34)cc2)CCC1 [Example 22, 1-[2-[4-[5-[(7S)-7-(3-Oxa-6-azabicyclo[3.1.1]heptan-6-yl)-6,7,8,9-tetrahydro-5H-benzo[7]annulen-3-yl]-1H-pyrrolo[2,3-b]pyridin-3-yl]phenyl]pyridin-3-yl]cyclobutan-1-ol] | < 0.1 µM | < 0.1 µM |
| Cc1cccnc1-c1ccc(-c2c[nH]c3ncc(-c4ccc5c(c4)CC[C@@H](N[C@H]4CCCOC4)CC5)cc23)cc1 [Example 186, (3S)—N-[(7S)-2-{3-[4-(3-Methylpyridin-2-yl)phenyl]-1H-pyrrolo[2,3-b]pyridin-5-yl}-6,7,8,9-tetrahydro-5H-benzo[7]annulen-7-yl]oxan-3-amine] | 0.1 to 1 µM | < 0.1 µM |
